These results are taken from patent US6528517B1, “Synthesis of quinobenzoxazine analogues with topoisomerase II and quadruplex interactions for use as antineoplastic agents” (Board of Regents, The University of Texas System, priority 1998, dated 2003).

One test concerns the target T1, human topoisomerase II (Homo sapiens, UniProt P11388).
T1 construct: purchased TopoGEN, Inc
Kind of test: Decatenation assay (catenated to decatenated KDNA). It is filed as biochemical. Particulars: drug concentration that inhibits 50% of conversion of catenated to decatenated KDNA; read-out: topoisomerase II inhibition IC50. As to the method: Kinetoplast DNA (KDNA), human topoisomerase II (170 KDa form), and DNA Unwinding Kit including supercoiled pHOT1 DNA, relaxed DNA marker, buffers, and human topoisomerase I were purchased from TopoGEN, Inc. Agarose was purchased from Fisher. Quinobenzoxazine A-62176 (S-enantiomer) was provided by Abbott Laboratories or prepared by published procedure (Chu and Maleczka, Jr., 1987).
0.25 μg of KDNA was incubated with various concentrations of the quinobenzoxazines in a 20-μl reaction mixture containing 50 mM Tris-HCl (pH 8), 120 mM KCl, 10 mM MgCl2, and 0.5 mM each of ATP, dithiothreitol, and […] BSA for 10 min. Two units of human topoisomerase II (170 KDa form) were added to the mixture, which was then incubated at 37° C. for 30 min. The reaction was terminated with 0.1 volume of stop buffer (5% sarkosyl, 0.025% bromophenol blue, and 50% glycerol). The decatenation products were analyzed on 1% agarose gels run with 0.5 μg/ml ethidium bromide. The gels were scanned by FluoroImager and analyzed by ImageQuaNT software (Molecular Dynamics).

A further test concerns B16 melanoma. In words: Cancer cell growth inhibition assay (MTT). Particulars: Mus musculus, B16. The class given is cell-based, murine. As to the method: Exponentially growing cells in 0.1 ml medium were seeded on Day 0 in 96-well microtiter plates. On Day 1, 0.1-ml aliquots of medium containing graded concentrations test agent were added in duplicate to the cell plates. After incubation at 37° C. in a humidified incubator, the plates were centrifuged briefly (1-2 min at 1000 rpm), and 100 μl of the growth medium was removed. Cell cultures were incubated with 50 μl of 3-(4,5-dimethylthiazyl-2-yl)-2,5-diphenyltetrazolium bromide MTT, 1 mg/ml in Dubecco's PBS for 4 h at 37° C. The resulting purple formazan precipitate was solubilized with 200 μl of 0.4 N HCl in isopropyl alcohol. Absorbance was quantitated using a Bio-Rad Model 3550 microplate reader at a test wavelength of 570 nm and a reference wavelength of 630 nm. Absorbance values were transferred to a 486 personal computer, and the IC50 values were determined using the computer program EZ-ED50 (Chen et al., 1993).

In the next test the target is T2, topo II-DNA complex (Drosophila melanogaster, UniProt P15348).
T2 construct: purchased Amersham
T2 sequence (P15348 1-1447): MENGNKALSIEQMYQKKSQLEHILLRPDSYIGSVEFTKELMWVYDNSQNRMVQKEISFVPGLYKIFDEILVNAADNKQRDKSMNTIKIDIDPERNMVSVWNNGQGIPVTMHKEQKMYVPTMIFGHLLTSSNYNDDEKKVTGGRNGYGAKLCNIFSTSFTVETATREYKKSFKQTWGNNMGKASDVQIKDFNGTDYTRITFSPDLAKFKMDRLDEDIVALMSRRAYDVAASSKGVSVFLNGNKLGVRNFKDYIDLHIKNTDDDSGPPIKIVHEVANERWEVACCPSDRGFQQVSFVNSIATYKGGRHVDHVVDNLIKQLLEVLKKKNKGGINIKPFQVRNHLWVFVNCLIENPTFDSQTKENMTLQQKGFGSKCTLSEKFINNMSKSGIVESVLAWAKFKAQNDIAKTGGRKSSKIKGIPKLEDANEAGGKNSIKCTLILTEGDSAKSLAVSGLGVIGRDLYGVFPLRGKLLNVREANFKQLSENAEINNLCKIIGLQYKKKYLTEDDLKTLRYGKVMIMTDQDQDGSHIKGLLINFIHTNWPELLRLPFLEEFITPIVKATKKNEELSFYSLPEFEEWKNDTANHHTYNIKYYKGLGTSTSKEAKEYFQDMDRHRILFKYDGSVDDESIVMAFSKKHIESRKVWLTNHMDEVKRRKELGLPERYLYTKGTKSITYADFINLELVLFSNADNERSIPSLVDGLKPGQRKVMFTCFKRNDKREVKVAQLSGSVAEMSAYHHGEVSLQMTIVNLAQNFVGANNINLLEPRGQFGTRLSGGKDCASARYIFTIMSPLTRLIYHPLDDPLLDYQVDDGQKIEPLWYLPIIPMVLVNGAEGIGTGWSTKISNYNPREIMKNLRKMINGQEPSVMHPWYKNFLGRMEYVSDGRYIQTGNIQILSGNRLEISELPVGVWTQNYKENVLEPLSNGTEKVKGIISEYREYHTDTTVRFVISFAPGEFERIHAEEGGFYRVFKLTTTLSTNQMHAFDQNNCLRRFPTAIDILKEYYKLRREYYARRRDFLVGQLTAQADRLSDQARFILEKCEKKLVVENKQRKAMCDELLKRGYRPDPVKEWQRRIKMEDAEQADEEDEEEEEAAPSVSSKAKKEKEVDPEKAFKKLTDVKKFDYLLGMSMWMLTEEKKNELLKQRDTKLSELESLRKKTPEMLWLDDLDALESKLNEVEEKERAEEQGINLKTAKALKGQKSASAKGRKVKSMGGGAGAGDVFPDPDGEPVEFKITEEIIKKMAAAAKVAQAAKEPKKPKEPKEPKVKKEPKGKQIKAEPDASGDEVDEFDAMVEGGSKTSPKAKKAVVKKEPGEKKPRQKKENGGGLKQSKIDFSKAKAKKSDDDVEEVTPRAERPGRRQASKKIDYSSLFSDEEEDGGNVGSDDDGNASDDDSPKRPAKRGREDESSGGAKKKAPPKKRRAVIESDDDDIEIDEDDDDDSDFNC
In words: Psorospermin competition study (DNA strand breakage assay). The class given is biochemical. On the procedure:
5′^32P-labeled DNA was incubated with Drosophila topo II in the same buffer as the one in the topo II cleavage reaction in the presence of various amounts of either A-62176, Norfloxacin, or both. The incubation reactions took place at 30° C. for 10 min before 10 μM (final concentration) of psorospermin was added to the mixtures. The reactions were continued for an additional 5 min and then terminated by adding 5 μg of calf thymus DNA, followed by heating at 95° C. for 15 min. In the presence of piperidine, this procedure induces strand breakage at the drug modification sites (Hansen et al., 1996). The samples were subjected to phenol/chloroform extraction followed by ethanol precipitation.
In the presence of topo II, the reactivity of psorospermin is enhanced more than 40-fold with the guanine at the +4′ position at site B in FIG. 7 (Kwok et al., 1998a and 1998b). A DNA strand breakage assay was used to locate the position of alkylation of DNA by the epoxide of psorospermin upon intercalation to the base pairs between the +1 and +2 positions at site B within the topo II-DNA complex (Kwok et al., 1998a). Psorospermin has subsequently been used to probe the binding sites for m-AMSA (Kwok et al., 1998a). In the present study, this same assay was performed to determine the binding site of A-62176 on DNA in the presence of topo II.

T1 sequence (P11388 whole entry): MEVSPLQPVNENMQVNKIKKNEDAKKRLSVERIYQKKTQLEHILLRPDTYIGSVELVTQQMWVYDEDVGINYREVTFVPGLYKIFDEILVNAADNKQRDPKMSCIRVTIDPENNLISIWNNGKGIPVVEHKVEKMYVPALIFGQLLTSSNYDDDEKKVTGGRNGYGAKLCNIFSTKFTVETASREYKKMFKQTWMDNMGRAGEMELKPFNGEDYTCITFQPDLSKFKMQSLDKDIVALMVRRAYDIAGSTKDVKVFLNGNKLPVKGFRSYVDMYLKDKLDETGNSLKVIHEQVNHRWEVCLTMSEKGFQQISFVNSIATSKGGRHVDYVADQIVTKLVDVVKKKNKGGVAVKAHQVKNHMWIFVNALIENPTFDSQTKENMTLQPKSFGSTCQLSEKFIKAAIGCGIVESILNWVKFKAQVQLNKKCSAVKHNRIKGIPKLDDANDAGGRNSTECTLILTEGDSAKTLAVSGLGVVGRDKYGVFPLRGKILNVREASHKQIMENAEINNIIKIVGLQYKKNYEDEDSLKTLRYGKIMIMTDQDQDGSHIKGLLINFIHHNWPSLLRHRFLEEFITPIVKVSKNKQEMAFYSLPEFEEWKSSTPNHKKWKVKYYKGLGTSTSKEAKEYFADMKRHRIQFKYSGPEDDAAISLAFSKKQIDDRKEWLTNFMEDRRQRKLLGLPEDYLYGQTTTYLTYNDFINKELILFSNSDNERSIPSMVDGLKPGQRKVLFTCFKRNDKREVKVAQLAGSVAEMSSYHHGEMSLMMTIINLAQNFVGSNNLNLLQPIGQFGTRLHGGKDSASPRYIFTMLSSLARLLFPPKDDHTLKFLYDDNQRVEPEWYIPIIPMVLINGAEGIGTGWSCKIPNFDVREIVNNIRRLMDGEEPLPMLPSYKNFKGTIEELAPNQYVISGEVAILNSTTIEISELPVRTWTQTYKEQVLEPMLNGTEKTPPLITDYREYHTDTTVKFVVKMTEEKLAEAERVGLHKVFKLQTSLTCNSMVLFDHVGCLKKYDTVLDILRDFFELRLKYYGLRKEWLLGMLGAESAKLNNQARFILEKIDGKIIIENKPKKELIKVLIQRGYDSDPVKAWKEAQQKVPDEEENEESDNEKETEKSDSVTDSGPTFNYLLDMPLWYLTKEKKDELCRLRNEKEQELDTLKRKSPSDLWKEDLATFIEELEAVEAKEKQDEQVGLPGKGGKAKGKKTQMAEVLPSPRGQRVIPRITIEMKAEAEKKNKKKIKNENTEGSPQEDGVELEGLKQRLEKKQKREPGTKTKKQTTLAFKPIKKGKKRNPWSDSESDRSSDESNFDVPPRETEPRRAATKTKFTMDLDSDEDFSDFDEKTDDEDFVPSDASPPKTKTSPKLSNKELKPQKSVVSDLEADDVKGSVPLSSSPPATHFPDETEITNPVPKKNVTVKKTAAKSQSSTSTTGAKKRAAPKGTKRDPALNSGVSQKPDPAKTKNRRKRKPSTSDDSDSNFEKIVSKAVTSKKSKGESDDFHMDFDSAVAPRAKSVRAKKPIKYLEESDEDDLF

Regarding `N[C@H]1CCN(c2c(F)cc3c(=O)c(C(=O)O)cn4c3c2Oc2ccccc2-4)C1` [Compound A-62176, 1-(3-aminopyrrolidin-1-yl)-2-fluoro-4-oxo-4H-quino[2,3,4-i,j][1,4]benzoxazine-5-carboxylic acid, reference compound], the half-maximal inhibitory concentration (IC50) stood at 510 nM at human topoisomerase II and 170 ± 10 nM with B16 melanoma. The “psorospermin alkylation at site B (competition)” value on topo II-DNA complex (0.5-10 μM drug, psorospermin, topo II present) is “decreased”. Moreover, the “inhibition of psorospermin alkylation, in combination with Norfloxacin” value at topo II-DNA complex (after subtracting the enhancement by Norfloxacin alone) was “additive effect”.
